Molecular target: ATX (human His-tagged) (Homo sapiens (Human), UniProt Q13822)
Assay: Human ATX enzyme inhibition assay (fluorescence quenching, MR121 substrate)
Format: biochemical
Details: 30 nM ATX, 1 μM MR121 substrate, 30° C., pH 8.0
Method in brief: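 Tris-HCl buffer at pH 8.0 contained 140 mM NaCl, 5 mM KCl, 1 mM each CaCl2 and MgCl2, and 0.01% Triton X-100. The MR121 substrate (1 μM final) was incubated with enzyme for 15 min at 30 °C, and activity was read by fluorescence quenching.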

Compound	IC50 [nM]
Cc1cc(CCC(=O)N2C[C@@H]3CN(C(=O)c4ccc5[nH]nnc5c4)C[C@H]3C2)c(C(C)C)cc1C#N [Example 19.21, 4-[3-[(3aR,6aR)-5-(1H-benzotriazole-5-carbonyl)-1,3,3a,4,6,6a-hexahydropyrrolo[3,4-c]pyrrol-2-yl]-3-oxopropyl]-2-methyl-5-propan-2-ylbenzonitrile]	3
O=C(/C=C/c1ccc(OC(F)(F)F)cc1)N1CC[C@@H]2CN(C(=O)N3CCc4[nH]nnc4C3)C[C@@H]2CC1 [Example 8.01]	2
O=C1N[C@@H]2CCN(C(=O)N3C[C@H]4CN(C(=O)CCc5ccc(OC(F)(F)F)cc5)C[C@@H]4C3)C[C@H]2O1 [Example 15.55]	478
COc1cc(C(=O)N2C[C@@H]3CN(C(=O)c4ccc5[nH]nnc5c4)C[C@H]3C2)cc2ccccc12 [Example 19.07, (1H-benzotriazol-5-yl)-[(3aS,6aS)-5-(4-methoxy-naphthalene-2-carbonyl)-hexahydro-pyrrolo[3,4-c]pyrrol-2-yl]-methanone]	24
O=C(c1ccc2[nH]nnc2c1)N1C[C@@H]2CN(S(=O)(=O)CCc3cccc(Cl)c3)C[C@@H]2C1 [Example 1.12, (1H-benzotriazol-5-yl)-{(3aS,6aR)-5-[2-(3-chloro-phenyl)-ethanesulfonyl]-hexahydro-pyrrolo[3,4-c]pyrrol-2-yl}-methanone]	9260
O=C(OCC1C2CC3CC(C2)CC1C3)N1C[C@@H]2CN(C(=O)c3ccc4[nH]nnc4c3)C[C@@H]2C1 (stereo partly drawn) [Example 4.14, (3aS,6aR)-5-(1H-benzotriazole-5-carbonyl)-hexahydro-pyrrolo[3,4-c]pyrrole-2-carboxylic acid adamantan-2-ylmethyl ester]	4190
O=C(/C=C/c1ccc(C(F)(F)F)cc1)N1C[C@@H]2CN(C(=O)c3ccc4[nH]nnc4c3)C[C@H]2C1 [Example 15.58]	5
O=C(OCc1cc(Cl)cc(Cl)c1)N1CC[C@@H]2CN(C(=O)c3ccc4[nH]nnc4c3)C[C@H]2C1 (single isomer, unassigned) [Example 11A, trans-3,5-dichlorobenzyl 2-(1H-benzo[d][1,2,3]triazole-5-carbonyl)-hexahydro-1H-pyrrolo[3,4-c]pyridine-5(6H)-carboxylate]	22
O=C(/C=C/c1ccccc1C1CC1)N1CC[C@@H]2CN(C(=O)c3ccc4[nH]nnc4c3)C[C@@H]2CC1 [Example 1.29, (E)-1-((3aR,8aS)-2-(1H-benzo[d][1,2,3]triazole-5-carbonyl)octahydropyrrolo[3,4-d]azepin-6(7H)-yl)-3-(2-cyclopropylphenyl)prop-2-en-1-one]	8
CC(=O)c1ccccc1OCC(=O)N1C[C@@H]2CN(C(=O)c3ccc4[nH]nnc4c3)C[C@H]2C1 [Example 19.04, 2-(2-acetyl-phenoxy)-1-[(3aS,6aS)-5-(1H-benzotriazole-5-carbonyl)-hexahydro-pyrrolo[3,4-c]pyrrol-2-yl]-ethanone]	1710
O=C(/C=C/c1ccc(Cl)cc1F)N1C[C@@H]2CN(C(=O)c3ccc4[nH]nnc4c3)C[C@H]2C1 [Example 15.41]	17
CS(=O)(=O)c1cc(COC(=O)N2CC[C@@H]3CN(C(=O)c4ccc5[nH]nnc5c4)C[C@@H]3CC2)cc(C(F)(F)F)c1 [Example 4.05, (3aS,8aR)-2-(1H-benzotriazole-5-carbonyl)-octahydro-pyrrolo[3,4-d]azepine-6-carboxylic acid 3-methanesulfonyl-5-trifluoromethyl-benzyl ester]	11
O=C(c1cnc(OCC(F)(F)F)c(C(F)(F)F)c1)N1C[C@@H]2CN(C(=O)c3ccc4[nH]nnc4c3)C[C@H]2C1 [Example 19.43, ((3aS,6aS)-5-(1H-benzo[d][1,2,3]triazole-5-carbonyl)hexahydropyrrolo[3,4-c]pyrrol-2(1H)-yl)(6-(2,2,2-trifluoroethoxy)-5-(trifluoromethyl)pyridin-3-yl)methanone]	14
O=C(COc1ccccc1-n1cccc1)N1C[C@@H]2CN(C(=O)c3ccc4[nH]nnc4c3)C[C@H]2C1 [Example 15.92]	249
O=C(/C=C/c1ccc([S+]([O-])C(F)(F)F)cc1)N1CC[C@@H]2CN(C(=O)c3ccc4[nH]nnc4c3)C[C@@H]2CC1 (stereo partly drawn) [Example 16, (E)-1-((3aR,8aS)-2-(1H-benzo[d][1,2,3]triazole-5-carbonyl)octahydropyrrolo[3,4-d]azepin-6(7H)-yl)-3-(4-(trifluoromethylsulfinyl)phenyl)prop-2-en-1-one]	15
O=C(/C=C/c1ccc(OC(F)(F)F)cc1)N1CC[C@@H]2CN(C(=O)NCc3cnn[nH]3)C[C@@H]2CC1 [Example 9, (3aR,8aS)—N-((1H-1,2,3-Triazol-5-yl)methyl)-6-((E)-3-(4-(trifluoromethoxy)phenyl)-acryloyl)octahydropyrrolo[3,4-d]azepine-2(1H)-carboxamide]	709
O=C(/C=C/c1ccc(OC(F)(F)F)c(F)c1)N1CC[C@@H]2CN(C(=O)c3ccc4[nH]nnc4c3)C[C@@H]2CC1 [Example 1.15, (E)-1-((3aR,8aS)-2-(1H-benzo[d][1,2,3]triazole-5-carbonyl)octahydropyrrolo[3,4-d]azepin-6(7H)-yl)-3-(3-fluoro-4-(trifluoromethoxy)phenyl)prop-2-en-1-one]	1
O=C(OCc1cc(Cl)cc(Cl)c1)N1C[C@H]2C[C@@H](Oc3ccc4[nH]c(=O)oc4c3)C[C@H]2C1 [Example 3.01, (3aR,5r,6aS)-3,5-Dichlorobenzyl 5-(2-oxo-2,3-dihydrobenzo[d]oxazol-6-yloxy)hexahydrocyclopenta[c]pyrrole-2(1H)-carboxylate]	1090
O=C(/C=C/c1ccccn1)N1CC[C@@H]2CN(C(=O)c3ccc4[nH]nnc4c3)C[C@@H]2CC1 [Example 15.16]	5790

Next, values leading:

IC50 [nM]	Compound
8	CCOc1cc(Cl)c(F)cc1COC(=O)N1C[C@@H]2CN(C(=O)c3ccc4[nH]nnc4c3)C[C@H]2C1 [Example 4.67, (3aS,6aS)-5-(1H-benzotriazole-5-carbonyl)-hexahydro-pyrrolo[3,4-c]pyrrole-2-carboxylic acid 4-chloro-2-ethoxy-5-fluoro-benzyl ester]
7.5	O=C(OCc1ccc(OCC(F)(F)F)cc1)N1CC[C@@H]2CN(C(=O)c3ccc4[nH]nnc4c3)C[C@@H]2CC1 [Example 1.48, (3aS,8aR)-2-(1H-benzotriazole-5-carbonyl)-octahydro-pyrrolo[3,4-d]azepine-6-carboxylic acid 4-(2,2,2-trifluoro-ethoxy)-benzyl ester]
50	COc1cc(Cl)cc(COC(=O)N2C[C@@H]3CN(C(=O)c4ccc5[nH]nnc5c4)C[C@@H]3C2)c1 [Example 4.30, (3aR,6aS)-3-chloro-5-methoxybenzyl 5-(1H-benzo[d][1,2,3]triazole-5-carbonyl)hexahydropyrrolo[3,4-c]pyrrole-2(1H)-carboxylate]
6	COc1cc(/C=C/C(=O)N2C[C@@H]3CN(C(=O)c4ccc5[nH]nnc5c4)C[C@H]3C2)cc(OC(F)(F)F)c1 [Example 15.51, (E)-1-[(3aR,6aR)-5-(1H-benzotriazole-5-carbonyl)-hexahydro-pyrrolo[3,4-c]pyrrol-2-yl]-3-(3-methoxy-5-trifluoromethoxy-phenyl)-prop-2-ene-1-one]
52	O=C(OCc1ccc(OC(F)(F)F)cc1)N1C[C@@H]2CN(C(=O)c3cc(F)c4[nH]nnc4c3)C[C@H]2C1 [Example 1.53, (3aS,6aS)-5-(7-fluoro-1H-benzotriazole-5-carbonyl)-hexahydro-pyrrolo[3,4-c]pyrrole-2-carboxylic acid 4-trifluoromethoxy-benzyl ester]
13	O=C(c1ccc2[nH]nnc2c1)N1C[C@H]2CN(C(=O)c3cc4ccc(OC(F)(F)F)cc4[nH]3)C[C@@H]2C1 [Example 15.98]
12	O=C(COc1ccc(OC(F)(F)F)cc1Cl)N1C[C@@H]2CN(C(=O)c3ccc4[nH]nnc4c3)C[C@H]2C1 [Example 15.91]
21	O=C(OCc1ccc(C(F)(F)F)cc1C1CC1)N1CC[C@@H]2CN(C(=O)c3ccc4[nH]nnc4c3)C[C@H]2C1 (relative stereo) [Example 1.31, trans-2-(1H-benzotriazole-5-carbonyl)-octahydro-pyrrolo[3,4-c]pyridine-5-carboxylic acid 2-cyclopropyl-4-trifluoromethyl-benzyl ester]
3480	O=C(OCc1cccc(C(O)C(F)(F)F)c1)N1C[C@@H]2CN(C(=O)c3ccc4[nH]nnc4c3)C[C@@H]2C1 (stereo partly drawn) [Example 4.21, cis-5-(1H-benzotriazole-5-carbonyl)-hexahydro-pyrrolo[3,4-c]pyrrole-2-carboxylic acid 3-(2,2,2-trifluoro-1-hydroxy-ethyl)-benzyl ester]
8	O=C(OCc1ccc(OC(F)(F)F)cc1)N1C[C@@H]2CN(C(=O)c3ccc4[nH]c(=O)oc4c3)C[C@H]2C1 [Example 2.04, (3aS,6aS)-5-(2-oxo-2,3-dihydro-benzooxazole-6-carbonyl)-hexahydro-pyrrolo[3,4-c]pyrrole-2-carboxylic acid 4-trifluoromethoxy-benzyl ester]
12	O=C(c1ccc2[nH]nnc2c1)N1C[C@H]2CN(C(=O)c3cc4cc(OC(F)(F)F)ccc4[nH]3)C[C@@H]2C1 [Example 15.99]
3	O=C(OCc1ccc(OC(F)(F)F)cc1F)N1C[C@@H]2CN(C(=O)c3ccc4[nH]nnc4c3)C[C@H]2C1 [Example 4.49, (3aS,6aS)-5-(1H-benzotriazole-5-carbonyl)-hexahydro-pyrrolo[3,4-c]pyrrole-2-carboxylic acid 2-fluoro-4-trifluoromethoxy-benzyl ester]
